Laboratory results from PMC4159583, “Evaluation of the Interaction between Phosphohistidine Analogues and Phosphotyrosine Binding Domains” (Chembiochem, 2014).
Where two headings read alike, the source gives them in different places. *1 amine or outer side, *2 acyl side, *3 side chain or, on linkers, in order; H or OH if unused. Where a SMILES comes first, the peptide text is derived from it. [ ]: non-standard residue; d: D form. The star is where a group is joined. X2 = O=C(O)c1cc(NC(=S)*)ccc1-c1c2ccc(=O)cc-2oc2cc(O)ccc12; X1 = O=C([C@H](Cn1cc(P(=O)(O)O)nn1)N[*:1])[*:2]; pY = N[C@@H](Cc1ccc(OP(=O)(O)O)cc1)C(=O)O; phTz = not defined here; GABA = NCCCC(=O)O

Columns and labels:
[1] = pKa determination by 31P NMR pH titration; format: physicochemical
Method: NMR data were collected using a Bruker DPX300 and analysed using MestReNova software. Experiments were carried out 121 MHz using peptide S1 or S2 at a concentration of 10 mM in 10% D2O in H2O (v/v, 2 mL) with an external standard of tris-carboxyethyl phosphine (TCEP) in H2O with a δ value set at 16.30 ppm.5 The pH of the solution was measured and adjusted by addition of 100 mM NaOH in 10% D2O in H2O (v/v) in portions of 5 µL. At higher pH values significant signal-broadening was observed, which precluded accurate determination of chemical shifts and such results were not included in calculations to determine pKa’s. The pKa was determined by fitting the observed chemical shift data to a Boltzmann distribution yielding pKas of ~5.8 for pTyr and 5.95 for the phosphotriazole analogue.
Equation )/(1 + exp((x-x0)
)/(1 + exp((x-x0) Chi-Sqr
Reduced Chi-S 0.00117 Value Standard Error
Figure S10. pH titrations of peptides S1 and S2 containing phosphotyrosine (S1, left) and phosphonotriazole (S2, right) 5Determined by a preliminary experiment using TCEP with an external standard of phosphoric acid (with a shift assigned as 0.00 ppm).
(also on this page, place not known: DPX3 00 software . usin g D 2O H 2O ppm. ad justed H 2O ( v/v) 5 signal-broa dening includ ed 31 P Chemical /ppm 0.01607 0.4 31 P Chemical shift /ppm shift)

His6-(Grb2-SH2) [2] = target: T1, His6-(Grb2-SH2) (Homo sapiens, UniProt P62993); test: Fluorescence anisotropy direct binding of FITC-pY peptide 17; settings: 100 nM peptide 17, Grb2-SH2 serially diluted, triplicate; 50 mM Tris.HCl, 100 mM NaCl pH 7.4; fraction bound corrected for quenching; read-out: binding constant (Kd) by fluorescence anisotropy
T1 construct: His6-(Grb2-SH2), 13132 Da; made in house
Method: (§1) Fluorescence polarization experiments
(§2) Peptides were prepared as described above. Fluorescence polarization assays were carried out in 96 well plates (160 µL per well). All experiments were performed in 50 mM Tris.HCl, 100 mM NaCl pH 7.4 (ITC buffer). 2.5-fold or 3-fold dilution series of each peptide were routinely prepared before mixing in the plate well before data acquisition using a Perkin Elmer EnVision™ 2103 MultiLabel plate reader
(§3) Determination of binding of FITC-pY peptide 17 to Grb2-SH2 domain
(§4) Grb2-SH2 was serially diluted through ITC buffer containing 100 nM peptide 17 in triplicate and the fluorescence measured in parallel and perpendicular channels. The instrumental G factor for each experiment was approximated by assuming the anisotropy r = 0 for the free peptide. For each data point the total intensity I and anisotropy r were then determined by application of equations 3 and 4 below. Data were fit using a logistic model to obtain limiting maximum and minimum values […]
(§5) upon binding of the protein and the fraction bound was therefore calculated using equation 5 where λ = Ibound/Ifree. The fraction […]
(§6) IT = Iparallel+ 2GI perpendicular (3) r = Iparallel− GI perpendicular (4)
(§7) F = r − rmin where R = Ibound (5) […]
Competition binding assay
Grb2-SH2. […]

[3] = target: T2, monomeric His6-(Grb2-SH2), Grb2 SH2 domain (Homo sapiens, UniProt P62993); test: ITC of peptides into monomeric His6-(Grb2-SH2) (late-eluting SEC peak 2); format: binding; settings: for ITC outcome, standard conditions: final ratio of ligand to protein 2:1
T2 construct: His6-(Grb2-SH2), 13132 Da; made in house
T2 sequence (P62993 with tags, fused parts or gaps): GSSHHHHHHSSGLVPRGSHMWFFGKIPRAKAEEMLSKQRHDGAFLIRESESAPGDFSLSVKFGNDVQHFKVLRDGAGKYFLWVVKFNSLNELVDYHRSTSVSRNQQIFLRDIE
Source text: (3 pictures or pasted objects on this page, not shown here)
(5 pictures or pasted objects on this page, not shown here)

His6-(Grb2-SH2) [4] = target: T1, His6-(Grb2-SH2); test: Competition fluorescence anisotropy/polarisation assay (displacement of 17); format: binding; settings: for competition / displacement of 17: 200 nM 17 and 175 nM Grb2-SH2, serial dilutions of peptide, pH 7.4
Method: as §1, §2, §3, §4, §5, §6, §7
Competition binding assay […]
fitting using a logistic model to obtain an IC50 value.

[5] = target: T3, full-length Grb2 purified as a glutathione S-transferase (GST) fusion (GST-Grb2) (Homo sapiens, UniProt P62993); test: ITC of peptides into full-length GST-Grb2; format: binding
T3 construct: made in house; host or cells: E. coli BL21-Gold (DE3)
Source text: Protein expression and purification
Isothermal Titration Calorimetry (ITC)

Grb2 SH2 domain [6] = settings: cited from earlier work
Source text: We envisaged producing suitable peptides by Fmoc-SPPS and investigating the interaction with proteins known to bind to phosphotyrosine. Our initial test system was the prototypical SH2 phosphotyrosine binding domain from Grb2.[19] […] A)15% SDS-PAGE: Lane 1 - MW markers, 2 & 3 –flow through Ni-NTA column of soluble fraction, 4 & 5 – elution of soluble fraction from Ni-NTA column, 6 – MW markers, 7 – insoluble fraction. B) 15% SDS-PAGE: Lane 1 - MW markers, 2 - insoluble fraction ...

Grb2 SH2 domain [7] = test: Literature affinities for Grb2-SH2; format: binding; settings: cited tripeptide Kd compared with own Kd of 11

Compound: N[C@@H](Cc1ccc(OP(=O)(O)O)cc1)C(=O)O [compound 4, phosphotyrosine]
- pKa ([1]; NMR titrations (of peptides containing the residue), phosphoryl group): 5.8

Compound: CC(C)[C@H](NC(=O)[C@H](CC(N)=O)NC(=O)[C@@H](NC(=O)[C@H](Cc1ccc(OP(=O)(O)O)cc1)NC(=O)[C@H](CO)NC(=O)CCCNC(=S)Nc1ccc(-c2c3ccc(=O)cc-3oc3cc(O)ccc23)c(C(=O)O)c1)C(C)C)C(=O)N[C@@H](CCC(N)=O)C(N)=O [compound 17, FITC-Gaba-Ser-pTyr-Val-Asn-Val-Gln-NH2] ({X2-GABA}-S[pY]VNVQ-NH2)
- Kd (His6-(Grb2-SH2) [2]): 283 ± 18 nM

Compound: CC(=O)N[C@@H](CO)C(=O)N[C@@H](Cn1cc(P(=O)(O)O)nn1)C(=O)N[C@H](C(=O)N[C@@H](CC(N)=O)C(=O)N[C@H](C(=O)N[C@@H](CCC(N)=O)C(N)=O)C(C)C)C(C)C [compound 16, AcHN-Ser-pTz-Val-Asn-Val-Gln-NH2] (Ac-S[X1]VNVQ-NH2)
- ITC outcome, standard conditions [3]: inconclusive
- competition / displacement of 17 (His6-(Grb2-SH2) [4]): Binding (displacement of 17) was observed

Compound: H-Cys-Gly-Ala-Gly-Ala-Gly pTz-Gly-Ala-Gly-Ala-Gly-OH [S2]
- pKa [1]: 5.95

Compound: AcHN-Ser-phTz-Val-Asn-Val-Gln-NH2 ({Ac-Ser-phTz}-VNVQ-NH2; reading uncertain; also: printed as AcHN-Ser-phTz-Val-Asn-Val-Gln-NH2) [compound 15]
- ITC binding outcome, low c-value ([3]; low c-value conditions, final ratio of ligand to protein 8:1, indistinguishable from titration into buffer): no binding
- ITC outcome, standard conditions [3]: inconclusive
- ITC titration outcome ([5]; ITC, peptide titrated into GST-Grb2, 25 °C, ITC buffer pH 7.4): inconclusive
- competition / displacement of 17 (His6-(Grb2-SH2) [4]): No competition

Compound: CC(=O)N[C@@H](CO)C(=O)N[C@@H](Cc1ccc(OP(=O)(O)O)cc1)C(=O)N[C@H](C(=O)N[C@@H](CC(N)=O)C(=O)N[C@H](C(=O)N[C@@H](CCC(N)=O)C(N)=O)C(C)C)C(C)C [compound 11, AcHN-Ser-pTyr-Val-Asn-Val-Gln-NH2, reference compound] (Ac-S[pY]VNVQ-NH2)
- Kd (Grb2 SH2 domain [6]; literature value for Shc-derived hexapeptide, read-out: Kd for Grb2 SH2 domain): 200 nM
- Kd [5]: 196 ± 21 nM
- IC50 (His6-(Grb2-SH2) [4]): 442 ± 80 nM
- competition / displacement of 17 (His6-(Grb2-SH2) [4]): Binding (displacement of 17) was observed

Compound: C[C@H](NC(=O)CNC(=O)[C@H](C)NC(=O)CNC(=O)[C@H](Cc1ccc(OP(=O)(O)O)cc1)NC(=O)CNC(=O)[C@H](C)NC(=O)CNC(=O)[C@H](C)NC(=O)CNC(=O)[C@@H](N)CS)C(=O)NCC(=O)O [S1, H-Cys-Gly-Ala-Gly-Ala-Gly pTyr-Gly-Ala-Gly-Ala-Gly-OH] (H-CGAGAG[pY]GAGAG-OH)
- pKa ([1]; 31P NMR 121 MHz, peptide 10 mM in 10% D2O in H2O, titrated with 100 mM NaOH, Boltzmann fit of chemical shift): ~ 5.8

Compound: AcHN-pTyr-Val-Asn-NH2 [literature control tripeptide for Grb2-SH2]
- Kd (Grb2 SH2 domain [6]; literature control tripeptide, main article, read-out: Kd for monomeric Grb2-SH2): 1600 nM
- fold lower affinity for monomeric Grb2-SH2 than hexapeptide 11 (Grb2 SH2 domain [7]): ~ 5 fold

Compound: AcHN-Ser-pSer-Val-Asn-Val-Gln-NH2 [compound 20]
- competition / displacement of 17 (His6-(Grb2-SH2) [4]): No competition

Compound: AcHN-Ser-Tyr-Val-Asn-Val-Gln-NH2 [compound 18]
- competition / displacement of 17 (His6-(Grb2-SH2) [4]): No competition

Compound: AcHN-Ser-His-Val-Asn-Val-Gln-NH2 [compound 19]
- competition / displacement of 17 (His6-(Grb2-SH2) [4]): No competition

Compound: AcHN-Ser-pThr-Val-Asn-Val-Gln-NH2 [compound 21]
- competition / displacement of 17 (His6-(Grb2-SH2) [4]): No competition
